{"source": "patent US11944662B2", "about": "“Methods and compositions for preventing or treating ophthalmic conditions” (Stealth BioTherapeutics Inc., priority 2009, dated 2024)", "key": {"HRECs": {"system": "HRECs", "assay": "Survival of HRECs in high glucose, Annexin V/PI flow cytometry", "format": "cell-based, human", "conditions": "24 hours after treatment", "protocol": "FIGS. 1A and 1B show the effects of different concentrations of SS-31 (10 nM, 100 nM, 1 μM and 10 μM) used as co-treatment with 30 mM glucose (HG). […] FIG. 1B is a graphic representation of the survival ratio for HRECs.\nSee generally, Li B, Tang S B, Zhang G, Chen J H, Li B J. Culture and characterization of human retinal capillary endothelial cell. Chin Ophthal Res 2005; 23: 20-2; Premanand C, Rema M, Sameer M Z, Sujatha M, Balasubramanyam M. Effect of curcumin on proliferation of human retinal endothelial cells under in vitro conditions. Invest Ophthalmol Vis Sci 2006; 47: 2179-84.\nBriefly, HREC cells were divided into three groups: a normal control group; a group administered 30 mM glucose; and a group administered 30 mM glucose+SS-31. Survival of HRECs in high glucose co-treated with different concentrations of SS-31 (10 nM, 100 nM, 1 μM, 10 μM) was measured using an Annexin V+PI assay and flow cytometry. See generally, Koopman, G., Reutelingsperger, C. P., Kuijten, G. A. M., Keehnen, R. M. J., Pals, S. T., and van Oers, M. H. J. 1994. Annexin V for flow cytometric detection of phosphatidylserine expression on B cells undergoing apoptosis. Blood 84: 1415; Homburg, C. H., de Haas, M., von dem Borne, A. E., Verhoeven, A. J., Reutelingsperger, C. P., and Roos, D. 1995. Human neutrophils lose their surface Fc gamma Rill and acquire Annexin V binding sites during apoptosis in vitro. Blood 85: 532; Vermes, I., Haanen, C., Steffens-Nakken, H., and Reutelingsperger, C. 1995. A novel assay for apoptosis-flow cytometric detection of phosphatidylserine expression on early apoptotic cells using fluorescein labelled Annexin V. J. Immunol. Meth. 184: 39; Fadok, V. A., Voelker, D. R., Campbell, P. A., Cohen, J. J., Bratton, D. L., and Henson, P. M. 1992. Exposure of phosphatidylserine on the surface of apoptotic lymphocytes triggers specific recognition and removal by macrophages. J. Immunol. 148: 2207.\nThe survival of HRECs in high glucose co-treated with SS-31 was tested at 24 h and 48 h."}, "[1]": {"system": "trabecular meshwork cells from glaucoma patients (GTM)", "protocol": "(§1) To assess whether SS-31 had cytotoxic effects of HTM or GTM cells, various concentrations of SS-31 were administered to cells and the cytotoxicity was measured using an LDH assay. A LDH cytotoxicity assay is a colorimetric method of assaying cellular cytotoxicity. The assay quantitatively measures the stable, cytosolic, lactate dehydrogenase (LDH) enzyme, which is released from damaged cells. The released LDH is measured with a coupled enzymatic reaction that results in the conversion of a tetrazolium salt (iodonitrotetrazolium (INT)) into a red color formazan by diaphorase. […] See generally, Haslam, G. et al. (2005) Anal. Biochem. 336: 187; Tarnawski, A. (2005) Biochem. Biophys. Res. Comm. 333: 207; Round, J. L et al. (2005) J. Exp. Med. 201: 419; Bose, C. et al. (2005) Am. J. Physiol. Gastr. L. 289: G926; Chen, A. and Xu, J. (2005) Am. J. Physiol. Gastr. L. 288: G447. The LDH activity is determined as NADH oxidation or INT reduction over a defined time period."}, "[2]": {"system": "trabecular meshwork cells from non-diseased individuals (HTM)", "protocol": "as §1"}, "GTM cells [3]": {"system": "GTM cells", "conditions": "n=3", "excerpt": "(§2) FIG. 37 is a graph showing the fluorescence intensity of ROS of GTM and HTM cells in control and SS-31-treated groups, as measured using FACS analysis."}, "HTM cells [4]": {"system": "HTM cells", "conditions": "n=4", "excerpt": "as §2"}, "GTM cells [5]": {"system": "GTM cells", "conditions": "n=4", "quoted_text": "(§4) The effects of SS-31 at mitigating acute oxidative injury in GTM and HTM cells was investigated."}, "HTM cells [6]": {"system": "HTM cells", "conditions": "n=4", "remark": "listed apart in the source", "quoted_text": "as §4"}, "[7]": {"system": "primary human retinal pigment epithelial (RPE) cells", "conditions": "different concentrations, 24 h", "description": "Primary cultured human RPE cells were incubated with different concentrations of SS-31 alone for a period of 24 h, and cell viability was determined by a MTT assay (FIG. 22)."}, "lenses of diabetic rats [8]": {"system": "lenses of diabetic rats", "assay": "Cataract formation in lenses, HFD/STZ diabetic rat model", "format": "in vivo, Sprague-Dawley rat", "conditions": "for Percentage of opacity (%) / Percentage of severe opacity (%) / Turbidity degree ++++ (count) / Turbidity degree +++ (count) / Turbidity degree ++ (count) / Turbidity degree + (count) / Turbidity degree − (count): HFD/STZ rat model; for Turbidity degree ++++ (count): ++++: severely opaque; for Turbidity degree +++ (count): +++: moderately opaque; for Turbidity degree ++ (count): ++: opaque; for Turbidity degree + (count): +: mildly opaque; for Turbidity degree − (count): −: transparent", "protocol": "The example describes the results of such experiments.\n(§3) A rat model of diabetes was established by combination of 6-week HFD and low dose of STZ (30 mg/kg) injection or a single high dose of STZ (65 mg/kg) in SD rats. See generally, K. Srinivasan, B. Viswanad, Lydia Asrat, C. L. Kaul and P. Ramarao, Combination of high-fat diet-fed and low-dose streptozotocin-treated rat: A model for type 2 diabetes and pharmacological screening, Pharmacological Research, 52(4): 313-320, 2005. Rats of the same batch fed with normal chow (NRC) were used as a control."}, "lenses of diabetic rats [9]": {"system": "lenses of diabetic rats", "assay": "Cataract formation in lenses, STZ diabetic rat model", "format": "in vivo, Sprague-Dawley rat", "conditions": "10 mg (Table 9: 10 mg/kg s.c.)", "protocol": "as §3"}, "[10]": {"system": "inner blood-retinal barrier", "assay": "Inner blood-retinal barrier function, Evans blue extravasation, diabetic rats", "format": "in vivo, Sprague-Dawley rat", "conditions": "compared to rats on a HFD not administered SS-20 or SS-31", "excerpt": "FIGS. 10A-10B is a series of charts showing the integrity of the blood-retinal barrier of normal rats (NRC), diabetic rats, and diabetic rats treated with SS-20 or SS-31, as analyzed by Evans blue extravasation. (10A) diabetes induced by STZ; (10B) diabetes induced by HFD/STZ.\nThe effect of the aromatic-cationic peptides on the inner blood-retinal barrier function in the SD rat model was investigated."}}, "note": "Read-outs that look alike come from different tables or passages of the source. Where a SMILES comes first, the peptide text is derived from it. Where no end group is shown, it is not given here. [ ]: non-standard residue; d: D form. Dmt = Cc1cc(O)cc(C)c1C[C@H](N)C(=O)O", "data": [{"molecule": "Cc1cc(O)cc(C)c1C[C@H](NC(=O)[C@H](N)CCCNC(=N)N)C(=O)N[C@@H](CCCCN)C(=O)N[C@@H](Cc1ccccc1)C(N)=O", "note": "[SS-31, D-Arg-2′,6′-Dmt-Lys-Phe-NH2] (H-[dR][Dmt]KF-NH2)", "values": [{"measurement": "survival ratios for HRECs (Q3)", "setting": "HRECs; 30 mM glucose + SS-31 10 nM", "result": 84.3, "unit": "%"}, {"measurement": "survival ratios for HRECs (Q3)", "setting": "HRECs; 30 mM glucose + SS-31 100 nM", "result": 90.7, "unit": "%"}, {"measurement": "survival ratios for HRECs (Q3)", "setting": "HRECs; 30 mM glucose + SS-31 1 μM", "result": 92.8, "unit": "%"}, {"measurement": "survival ratios for HRECs (Q3)", "setting": "HRECs; 30 mM glucose + SS-31 10 μM", "result": 94.3, "unit": "%"}, {"measurement": "cytotoxicity", "setting": "[1]; at 10^−3 M", "result": "no cytotoxicity"}, {"measurement": "viability (LDH cytotoxicity assay)", "setting": "[1]; various concentrations", "result": "does not affect the viability"}, {"measurement": "cytotoxicity", "setting": "[2]; at 10^−3 M", "result": "no cytotoxicity"}, {"measurement": "viability (LDH cytotoxicity assay)", "setting": "[2]; various concentrations", "result": "does not affect the viability"}, {"measurement": "percentage of intracellular ROS production compared to GTM control", "setting": "GTM cells [3]; H2O2 + SS-31 10^−6 M", "result": "84.5±8.75", "unit": "%"}, {"measurement": "percentage of intracellular ROS production compared to GTM control", "setting": "GTM cells [3]; H2O2 + SS-31 10^−7 M", "result": "102.0±5.69", "unit": "%"}, {"measurement": "percentage of intracellular ROS production compared to GTM control", "setting": "GTM cells [3]; H2O2 + SS-31 10^−8 M", "result": "133.0±5.17", "unit": "%"}, {"measurement": "percentage of intracellular ROS production, HTM groups", "setting": "HTM cells [4]; H2O2 + SS-31 10^−6 M", "result": "79±2.39", "unit": "%"}, {"measurement": "percentage of intracellular ROS production, HTM groups", "setting": "HTM cells [4]; H2O2 + SS-31 10^−7 M", "result": "91.8±3.49", "unit": "%"}, {"measurement": "percentage of intracellular ROS production, HTM groups", "setting": "HTM cells [4]; H2O2 + SS-31 10^−8 M", "result": "129.0±8.24", "unit": "%"}, {"measurement": "percentage of fluorescence intensity of TMRM compared to GTM control", "setting": "GTM cells [5]; H2O2 + SS-31 10^−6 M", "result": "56.2±4.04", "unit": "%"}, {"measurement": "percentage of fluorescence intensity of TMRM compared to GTM control", "setting": "GTM cells [5]; H2O2 + SS-31 10^−7 M", "result": "50.3±4.46", "unit": "%"}, {"measurement": "percentage of fluorescence intensity of TMRM compared to GTM control", "setting": "GTM cells [5]; H2O2 + SS-31 10^−8 M", "result": "47.5±2.82", "unit": "%"}, {"measurement": "percentage of fluorescence intensity of TMRM, HTM groups", "setting": "HTM cells [6]; H2O2 + SS-31 10^−6 M", "result": "57.7±1.80", "unit": "%"}, {"measurement": "percentage of fluorescence intensity of TMRM, HTM groups", "setting": "HTM cells [6]; H2O2 + SS-31 10^−7 M", "result": "50.6±3.06", "unit": "%"}, {"measurement": "percentage of fluorescence intensity of TMRM, HTM groups", "setting": "HTM cells [6]; H2O2 + SS-31 10^−8 M", "result": "49.4±2.27", "unit": "%"}, {"measurement": "cell viability (MTT assay), SS-31 alone", "setting": "[7]", "result": "did not adversely effect"}]}, {"molecule": "F[dR]FK-NH2 [SS-20]", "values": [{"measurement": "cataract formation in the lenses of diabetic rats", "setting": "lenses of diabetic rats [8]; HFD/STZ and STZ models (FIGS. 6 and 7, Tables 11 and 12)", "result": "prevention or reversal of cataract formation"}, {"measurement": "Percentage of opacity (%)", "setting": "lenses of diabetic rats [8]; 3 mg (Table 7: 3 mg/kg s.c.)", "result": 75.0, "unit": "%"}, {"measurement": "Percentage of severe opacity (%)", "setting": "lenses of diabetic rats [8]; 3 mg (Table 7: 3 mg/kg s.c.)", "result": 25.0, "unit": "%"}, {"measurement": "Turbidity degree ++++ (count)", "setting": "lenses of diabetic rats [8]; 3 mg (Table 7: 3 mg/kg s.c.)", "result": 1}, {"measurement": "Turbidity degree +++ (count)", "setting": "lenses of diabetic rats [8]; 3 mg (Table 7: 3 mg/kg s.c.)", "result": 0}, {"measurement": "Turbidity degree ++ (count)", "setting": "lenses of diabetic rats [8]; 3 mg (Table 7: 3 mg/kg s.c.)", "result": 1}, {"measurement": "Turbidity degree + (count)", "setting": "lenses of diabetic rats [8]; 3 mg (Table 7: 3 mg/kg s.c.)", "result": 1}, {"measurement": "Turbidity degree − (count)", "setting": "lenses of diabetic rats [8]; 3 mg (Table 7: 3 mg/kg s.c.)", "result": 1}, {"measurement": "Percentage of opacity (%)", "setting": "lenses of diabetic rats [8]; 10 mg (Table 7: 10 mg/kg s.c.)", "result": 75.0, "unit": "%"}, {"measurement": "Percentage of severe opacity (%)", "setting": "lenses of diabetic rats [8]; 10 mg (Table 7: 10 mg/kg s.c.)", "result": 0, "unit": "%"}, {"measurement": "Turbidity degree ++++ (count)", "setting": "lenses of diabetic rats [8]; 10 mg (Table 7: 10 mg/kg s.c.)", "result": 0}, {"measurement": "Turbidity degree +++ (count)", "setting": "lenses of diabetic rats [8]; 10 mg (Table 7: 10 mg/kg s.c.)", "result": 0}, {"measurement": "Turbidity degree ++ (count)", "setting": "lenses of diabetic rats [8]; 10 mg (Table 7: 10 mg/kg s.c.)", "result": 1}, {"measurement": "Turbidity degree + (count)", "setting": "lenses of diabetic rats [8]; 10 mg (Table 7: 10 mg/kg s.c.)", "result": 2}, {"measurement": "Turbidity degree − (count)", "setting": "lenses of diabetic rats [8]; 10 mg (Table 7: 10 mg/kg s.c.)", "result": 1}, {"measurement": "Percentage of opacity (%)", "setting": "lenses of diabetic rats [9]", "result": 60.0, "unit": "%"}, {"measurement": "Percentage of severe opacity (%)", "setting": "lenses of diabetic rats [9]", "result": 20.0, "unit": "%"}, {"measurement": "Opacity degree ++++ (count)", "setting": "lenses of diabetic rats [9]; ++++: severely opaque", "result": 1}, {"measurement": "Opacity degree +++ (count)", "setting": "lenses of diabetic rats [9]; +++: moderately opaque", "result": 0}, {"measurement": "Opacity degree ++ (count)", "setting": "lenses of diabetic rats [9]; ++: opaque", "result": 2}, {"measurement": "Opacity degree + (count)", "setting": "lenses of diabetic rats [9]; +: mildly opaque", "result": 0}, {"measurement": "Opacity degree − (count)", "setting": "lenses of diabetic rats [9]; −: transparent", "result": 2}, {"measurement": "inner blood-retinal barrier function", "setting": "[10]", "result": "improved"}]}]}
